Data set [1] deals with aconitine-induced arrhythmias. Nature of the data set: in vivo antagonism of aconitine-induced arrhythmias. Further details: species or system male rats. The settings on record: for % protection: vs control; for Dose of aconitine inducing arrhythmias: aconitine infusion 5 μg/kg/min. As for the experimental part:
This test was carried out in male rats under urethane anaesthesia as described by B. Vargaftig and J. L. Coignet, Eur. J. Pharmacol., 6, 49 (1969). It was estimated what dose of aconitine in an i.v. infusion (5 μ g/kg/min, rate 0.2 ml/min) would induce arrhythmias. Three minutes before the infusion physiological saline with or without test compound was injected i.v.

The test system of data set [2] is right atrial muscles from guinea pigs. The data set is described as follows: anti-arrhythmic activity in vitro, ouabain-induced arrhythmia in right atrial muscles. The note with it: Cavia porcellus; minimal drug concentration (M) preventing any arrhythmia, ouabain 0.5 μg/ml, 37° C, pH 7.4; read-out: Antiarrh. act. -log min. dose (converted). Further details: species or system guinea pig. How it is done: The anti-arrhythmic activity in vitro was determined as follows. Right atrial muscles from guinea pigs were dissected and freed from the appendage. They were suspended in 100 ml of a modified Ringer-Locke solution (g/l: […] Spontaneous contractions were recorded on a Schwarzer ECG (Cardioscript III) using an […] Transducer (8101) in a Wheatstone bridge circuit. Tension was so adjusted that contractions reached maximal amplitude while keeping distortion of the baseline minimal. After a 40-min equilibrium period the test compound was added and for 30 minutes contractile force and rate were recorded at 1-min intervals for 10 seconds. Next, ouabain was added in a concentration of 0.5 μg/ml and force and rate were measured at 1-min intervals over a 60-min period. […] This was confirmed at least once. Control experiments without test compounds were carried out daily.

The target in data set [3] is T1, cardiac β-receptors (Cavia porcellus, UniProt H0W3H1).
T1 construct: on the isolated, spontaneously beating, right atrium of the guinea pig; from tissue; host or cells: guinea pig right atrium (isolated, spontaneously beating)
T1 sequence (H0W3H1 1-470): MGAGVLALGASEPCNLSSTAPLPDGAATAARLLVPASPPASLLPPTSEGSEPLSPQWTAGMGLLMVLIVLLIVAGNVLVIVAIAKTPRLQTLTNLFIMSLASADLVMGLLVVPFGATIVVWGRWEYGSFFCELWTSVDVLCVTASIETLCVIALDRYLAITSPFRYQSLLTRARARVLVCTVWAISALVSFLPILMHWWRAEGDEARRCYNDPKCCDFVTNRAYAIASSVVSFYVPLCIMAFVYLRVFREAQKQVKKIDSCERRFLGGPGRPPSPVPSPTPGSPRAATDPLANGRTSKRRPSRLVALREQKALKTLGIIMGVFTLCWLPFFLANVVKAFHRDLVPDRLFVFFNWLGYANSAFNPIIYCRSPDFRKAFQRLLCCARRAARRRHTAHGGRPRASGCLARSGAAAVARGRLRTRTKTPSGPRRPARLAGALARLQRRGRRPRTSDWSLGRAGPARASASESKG
Nature of the data set: antagonism to cardiac β-receptors on isolated, spontaneously beating right atrium (isoprenaline chronotropism, pA2). The note with it: isolated right atrium guinea pig, vs isoprenaline; R = isopropyl for A-E.

Data set [4] concerns the target T2, β-adrenergic (guinea pig tracheal chain) (Cavia porcellus, UniProt Q8K4Z4).
T2 construct: determined on the guinea pig tracheal chain; from tissue; host or cells: guinea pig tracheal chain (isolated)
Nature of the data set: β-adrenergic blocking activity on guinea pig tracheal chain (antagonism of isoprenaline relaxation, pA2). The settings on record: vs isoprenaline, R = isopropyl for A-E. How it is done:
The β-adrenergic blocking activity was determined on the guinea pig tracheal chain prepared as described by H. Timmerman and N. G. Scheffer, J. Pharm. […] Int. Pharmacodyn. […] The pA2-values were calculated according to Van Rossum from the parallel shift to the right of the log dose - response curves.

Data set [5] in a line: hygroscopicity (observation in the synthesis example). In kind it is physicochemical. The note with it: dihydrochloride.

Structures are written as SMILES. Structures can show the parent of a compound that is named as a salt.

T2 sequence (Q8K4Z4 whole entry): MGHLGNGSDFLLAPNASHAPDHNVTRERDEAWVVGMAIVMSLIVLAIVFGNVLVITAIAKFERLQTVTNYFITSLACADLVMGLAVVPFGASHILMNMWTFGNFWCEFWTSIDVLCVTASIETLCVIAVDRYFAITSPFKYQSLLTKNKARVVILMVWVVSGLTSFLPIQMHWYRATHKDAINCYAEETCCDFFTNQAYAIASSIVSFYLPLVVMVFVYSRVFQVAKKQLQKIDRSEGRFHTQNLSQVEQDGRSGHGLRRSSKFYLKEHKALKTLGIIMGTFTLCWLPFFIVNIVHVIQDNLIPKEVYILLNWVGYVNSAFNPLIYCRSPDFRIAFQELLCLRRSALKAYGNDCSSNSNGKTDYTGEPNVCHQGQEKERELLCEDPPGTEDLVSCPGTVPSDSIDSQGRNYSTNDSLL

Regarding `CC(C)NCC(O)COc1ccccc1OCC(O)CNC(C)C` (stereo not shown) [A, 1,1'-(o-phenylenedioxy)-bis-[3-(isoproyl-amino)propan-2-ol] dihydrochloride], the “% protection” value in data set [1] (4 mg/kg i.v.) is recorded as 12.9%; in data set [1] (8 mg/kg i.v.), 35.5%; in data set [1] (16 mg/kg i.v.), 110.8%. In addition, the “Dose of aconitine inducing arrhythmias” value turned out to be 0.0315 mg/kg in data set [1] (test compound 4 mg/kg i.v.), 0.0378 mg/kg in data set [1] (test compound 8 mg/kg i.v.) and 0.0588 mg/kg in data set [1] (test compound 16 mg/kg i.v.). The minimal effective concentration in data set [2] is 0.0002 M. Moreover, the Kb in data set [3] is 324 nM. Moreover, the pA2 trachea in data set [4] is listed as 6.73 (±0.05).
For the compound `Cc1cccc(OCC(O)CNC(C)C)c1OCC(O)CNC(C)C.Cl.Cl` (stereo not shown) [B, 1,1'-[(3-methyl-o-phenylene)dioxy]-bis-[3-(isopropylamino)propan-2-ol] dihydrochloride], the minimal effective concentration in data set [2] was 2e-05 M. This compound had a Kb in data set [3] of 3310 nM. For the same compound, in data set [4], the pA2 trachea is listed as 5.80 (±0.08).
In the case of `CC(C)NCC(O)COc1cccc(C(C)C)c1OCC(O)CNC(C)C` (stereo not shown) [C, 1,1'-[(3-isopropyl-o-phenylene)dioxy]-bis-[3-(isopropylamino)-propan-2-ol]dihydrochloride], the “% protection” value in data set [1] (0.5 mg/kg i.v.) is reported as 44.0%; in data set [1] (1.0 mg/kg i.v.) it was 79.6%; in data set [1] (2.0 mg/kg i.v.), 135.5%. The “Dose of aconitine inducing arrhythmias” value in data set [1] (test compound 0.5 mg/kg i.v.) was found to be 0.0458 mg/kg; in data set [1] (test compound 1.0 mg/kg i.v.), 0.0571 mg/kg; in data set [1] (test compound 2.0 mg/kg i.v.) it was 0.0749 mg/kg. Further, the minimal effective concentration in data set [2] was 1e-05 M. Moreover, the Kb in data set [3] is 25700 nM. The pA2 trachea in data set [4] is on record as 5.35 (±0.11).
As for `Cc1ccc(OCC(O)CNC(C)C)c(OCC(O)CNC(C)C)c1.Cl.Cl` (stereo not shown) [D, 1,1'-[(4-methyl-o-phenylene)dioxy]-bis-[3-(isopropylamino)-propan-2-ol] dihydrochloride], the minimal effective concentration in data set [2] was 5.01e-05 M. The compound further had a Kb in data set [3] of 603 nM. Further, in data set [4], the pA2 trachea was 6.66 (±0.09).
As for `CC(C)NCC(O)COc1ccc(C(C)C)cc1OCC(O)CNC(C)C.Cl.Cl` (stereo not shown) [E, 1,1'-[(4-isopropyl-o-phenylene)dioxy]-bis-[3-(isopropylamino)-propan-2-ol] dihydrochloride], in data set [2], the minimal effective concentration was 2e-05 M. The same compound gave a Kb in data set [3] of 2290 nM. For the same compound, in data set [4], the pA2 trachea is 6.48 (±0.09). Besides, in data set [5], the hygroscopicity entry is “very hydroscopic”.
`CC(C)(C)NCC(O)COc1ccccc1OCC(O)CNC(C)(C)C` (stereo not shown) [F, 1,1'-(o-phenylenedioxy)-bis-[3-(tert.-butylamino)-propan-2-ol]dihydrochloride]: the “% protection” value in data set [1] (4 mg/kg i.v.) amounted to 41.7%; in data set [1] (8 mg/kg i.v.), 104.2%; in data set [1] (16 mg/kg i.v.), 158.6%. Further, the “Dose of aconitine inducing arrhythmias” value in data set [1] (test compound 4 mg/kg i.v.) was 0.034 mg/kg; in data set [1] (test compound 8 mg/kg i.v.), 0.049 mg/kg; in data set [1] (test compound 16 mg/kg i.v.), 0.062 mg/kg.
With `CC(C)NCC(O)COc1ccccc1` (stereo not shown) [G, 1-(isopropylamino)-3-phenoxy-2-propanol, reference compound], the minimal effective concentration in data set [2] was 0.000302 M. The Kb in data set [3] was 0.977 nM; in data set [4] (read-out: pA2 trachea (converted)), 24.5 nM.

For the origin of these results see patent US3998874A, “Phenylene di-ethers” (Gist-Brocades N.V., priority 1974, dated 1976).
